Source: the supplement of paper PMC13380429
Where a name gives a salt, the structure may show the parent alone. ± gives the standard deviation of the averaged measurements.

Experiments:
Settings in all cases: 72 h
Calu-3 [1] = assay: relative viability EC50 (midpoint between 100% and the lowest measured viability); higher = less toxic
HepG2 [2] = assay: as above
Caco-2 [3] = assay: as above
U2OS [4] = assay: as above
Vero E6 [5] = assay: as above
Calu-3 [6] = assay: drug sensitivity score (DSS) for viability; higher = more toxic; extreme values may be limits of the assay
HepG2 [7] = assay: as above
Caco-2 [8] = assay: as above
U2OS [9] = assay: as above
Vero E6 [10] = assay: as above
Calu-3 [11] = assay: cell viability relative to DMSO; higher = less toxic
HepG2 [12] = assay: as above
Caco-2 [13] = assay: as above
U2OS [14] = assay: as above
Vero E6 [15] = assay: as above

SMILES	relative viability EC50 (Calu-3 [1])	relative viability EC50 (HepG2 [2])	relative viability EC50 (Caco-2 [3])	relative viability EC50 (U2OS [4])	relative viability EC50 (Vero E6 [5])	drug sensitivity score (Calu-3 [6])	drug sensitivity score (HepG2 [7])	drug sensitivity score (Caco-2 [8])	drug sensitivity score (U2OS [9])	drug sensitivity score (Vero E6 [10])	cell viability (Calu-3 [11]; 1 nM)	cell viability (Calu-3 [11]; 10 nM)	cell viability (Calu-3 [11]; 100 nM)	cell viability (Calu-3 [11]; 1000 nM)	cell viability (Calu-3 [11]; 10000 nM)	cell viability (HepG2 [12]; 1 nM)	cell viability (HepG2 [12]; 10 nM)	cell viability (HepG2 [12]; 100 nM)	cell viability (HepG2 [12]; 1000 nM)	cell viability (HepG2 [12]; 10000 nM)	cell viability (Caco-2 [13]; 1 nM)	cell viability (Caco-2 [13]; 10 nM)	cell viability (Caco-2 [13]; 100 nM)	cell viability (Caco-2 [13]; 1000 nM)	cell viability (Caco-2 [13]; 10000 nM)	cell viability (U2OS [14]; 1 nM)	cell viability (U2OS [14]; 10 nM)	cell viability (U2OS [14]; 100 nM)	cell viability (U2OS [14]; 1000 nM)	cell viability (U2OS [14]; 10000 nM)	cell viability (Vero E6 [15]; 1 nM)	cell viability (Vero E6 [15]; 10 nM)	cell viability (Vero E6 [15]; 100 nM)	cell viability (Vero E6 [15]; 1000 nM)	cell viability (Vero E6 [15]; 10000 nM)
O=C(Nc1cc(-c2ccccc2)nn1-c1ccccc1)c1ccc([N+](=O)[O-])cc1 [VU29]	> 10 µM	> 10 µM	> 10 µM	> 10 µM	> 10 µM	0	0	0	0	0.2	102%	102%	107%	98.5%	111%	105%	112%	108%	100%	90.2%	106%	96.2%	102%	95%	96.6%	110%	101%	107%	99%	99%	100%	96.4%	101%	94.2%	88.6%
COc1cccc2c1C(=O)c1c(O)c3c(c(O)c1C2=O)C[C@@](O)(C(=O)CO)C[C@@H]3O[C@H]1C[C@H](N)[C@@H](O)[C@H](C)O1 [Epirubicin Hydrochloride]	0.224 µM	0.0903 µM	0.3 µM	0.349 µM	1.13 µM	13.3 ± 0.99	22.9 ± 0.14	12.3 ± 0.35	16.6 ± 1.5	7	101 ± 3.3%	102 ± 6.4%	80 ± 6.6%	41.2 ± 1.1%	30.4 ± 0.49%	102.8 ± 0.14%	93.2 ± 12%	49.7 ± 0.57%	12.25 ± 0.071%	4.25 ± 0.64%	95.8 ± 5.9%	97 ± 6.3%	89 ± 1.4%	40.8 ± 1.2%	30.9 ± 1.7%	95.5 ± 1.4%	99.7 ± 0.28%	90.2 ± 1.8%	17.1 ± 9.9%	3.15 ± 1.3%	100 ± 2%	96.5 ± 2%	96 ± 3.5%	71.1 ± 3.7%	34.4 ± 8%
C[C@]12CCC(=O)C[C@@H]1CC[C@@H]1[C@@H]2CC[C@]2(C)C=CC[C@@H]12 [androstenone]	> 10 µM	> 10 µM	> 10 µM	> 10 µM	> 10 µM	0.1	0	0	0	0	90.7%	91.1%	99.8%	105%	80.2%	100%	99.4%	92.4%	89.8%	100%	86.6%	104%	93.9%	97.2%	102%	94.5%	99.3%	92.6%	99%	101%	96.8%	97.1%	97.4%	93.4%	102%
Nc1ccn([C@@H]2CS[C@H](CO)O2)c(=O)n1 [lamivudine]	> 10 µM	> 10 µM	> 10 µM	> 10 µM	> 10 µM	0	0	0.7	0	0	107%	89.6%	89.4%	96.9%	97.6%	93.9%	93.4%	98.8%	99.1%	106%	83%	100%	89.3%	88.7%	84.5%	96.9%	102%	97.7%	102%	97.1%	102%	105%	97.4%	85.8%	99.2%
Cc1cccc(NC(=O)c2ccc(C(F)(F)F)cc2C(=O)O)n1	> 10 µM	> 10 µM	> 10 µM	> 10 µM	> 10 µM	0	0	0	0	0	103%	95%	94.5%	106%	98.6%	103%	96.8%	105%	108%	102%	99.5%	101%	101%	98%	105%	100%	102%	97%	97%	104%	99.7%	99.8%	105%	104%	106%
[N-]=[N+]=N[C@]1(CO)O[C@@H](n2ccc(N)nc2=O)[C@H](O)[C@@H]1O [R-1479]	> 10 µM	> 10 µM	> 10 µM	> 10 µM	> 10 µM	0	0	0	0	0	91.35 ± 0.78%	99.5 ± 4.4%	102.8 ± 0.78%	100 ± 2.3%	93 ± 1.5%	112 ± 7.2%	94.25 ± 0.92%	98.3 ± 2.8%	94.7 ± 1.7%	96.2 ± 3.6%	98.2 ± 3.6%	96.2 ± 4%	90.7%	98.6 ± 11%	96.7 ± 9.1%	98 ± 0.85%	102 ± 2.8%	102 ± 1.3%	105 ± 2.5%	100 ± 0.14%	99 ± 3.8%	96.4 ± 1.7%	97.8 ± 1.7%	94.5 ± 2.8%	103 ± 6.7%
